Drawing on ChEMBL document CHEMBL4304773, “Nitroimidazole-containing compounds and their antibacterial and antitubercular activities” (2019), this text covers MIC and MIC90 for 18 molecules.

Values after ≈ are worked out from the molar mass of the structure shown.

One experiment deals with Streptococcus pyogenes. As to the kind of experiment: Antibacterial activity against Streptococcus pyogenes. The experiment is classed as functional.
For experiment [1], the system named is Staphylococcus aureus. As to the kind of experiment: Antibacterial activity against Staphylococcus aureus. The class given is functional.
Another experiment relates to Enterococcus faecalis. As to the kind of experiment: Antibacterial activity against Enterococcus faecalis. The experiment is classed as functional.
For the next experiment, the system named is Candida albicans. As to the kind of experiment: Antifungal activity against Candida albicans. The experiment is classed as functional.
Experiment [2] has as its system Staphylococcus epidermidis. As to the kind of experiment: Antibacterial activity against Staphylococcus epidermidis. The class given is functional.
Experiment [3] concerns Escherichia coli. As to the kind of experiment: Antibacterial activity against Escherichia coli. The class given is functional.
The subject of experiment [4] is Klebsiella aerogenes. As to the kind of experiment: Antibacterial activity against Klebsiella aerogenes. The experiment is classed as functional.
For experiment [5], the system named is Pseudomonas aeruginosa. As to the kind of experiment: Antibacterial activity against Pseudomonas aeruginosa. The class given is functional.
Another experiment has as its system Salmonella typhimurium. As to the kind of experiment: Antibacterial activity against Salmonella typhimurium. Conditions: Salmonella enterica. The experiment is classed as functional, Salmonella enterica subsp. enterica serovar Typhimurium.
The subject of a further experiment is Proteus vulgaris. As to the kind of experiment: Antibacterial activity against Proteus vulgaris. The experiment is classed as functional.
Experiment [6] relates to Pseudomonas aeruginosa. As to the kind of experiment: Antibacterial activity against Pseudomonas aeruginosa ATCC 27853 after 24 hrs by NCCLS method. Conditions: ATCC 27853, 24 h. The experiment is classed as functional.
In experiment [7] the test system is Bacillus subtilis. As to the kind of experiment: Antibacterial activity against Bacillus subtilis ATCC 530 after 24 hrs by NCCLS method. The class given is functional. Particulars: ATCC 530, 24 h.
For experiment [8], the system named is Escherichia coli. As to the kind of experiment: Antibacterial activity against Escherichia coli ATCC 25922 after 24 hrs by NCCLS method. The class given is functional. Conditions: ATCC 25922, 24 h.
Experiment [9] concerns Staphylococcus aureus. As to the kind of experiment: Antibacterial activity against Staphylococcus aureus ATCC 25923 after 24 hrs by NCCLS method. The class given is functional. Conditions: ATCC 25923, 24 h.
For experiment [10], the system named is Escherichia coli. As to the kind of experiment: Antibacterial activity against Escherichia coli ATCC 8739 after 18 hrs by two fold serial dilution. Particulars: ATCC 8739, 18 h. The class given is functional.
In experiment [11] the test system is Staphylococcus aureus. As to the kind of experiment: Antibacterial activity against Staphylococcus aureus ATCC 6538 after 18 hrs by two fold serial dilution. The experiment is classed as functional. Conditions: ATCC 6538, 18 h.
Experiment [12] relates to Bacillus subtilis. As to the kind of experiment: Antibacterial activity against Bacillus subtilis PTCC 1023 after 18 hrs by two fold serial dilution. The class given is functional. Conditions: PTCC 1023, 18 h.
Experiment [13] has as its system Klebsiella pneumoniae. As to the kind of experiment: Antibacterial activity against Klebsiella pneumoniae ATCC 10031 after 18 hrs by two fold serial dilution. The class given is functional. Conditions: ATCC 10031, 18 h.
In experiment [14] the test system is Klebsiella aerogenes. As to the kind of experiment: Antibacterial activity against Enterobacter aerogenes PTCC 1221 after 18 hrs by two fold serial dilution. The experiment is classed as functional. Conditions: PTCC 1221, 18 h.
Experiment [15] concerns Helicobacter pylori. As to the kind of experiment: Antibacterial activity against Helicobacter pylori. The class given is functional.
Experiment [16] relates to Helicobacter pylori. As to the kind of experiment: Antibacterial activity against Helicobacter pylori NCTC 11637. The class given is functional.
Experiment [17] relates to Helicobacter pylori. As to the kind of experiment: Antibacterial activity against metronidazole-resistant Helicobacter pylori clinical isolates. The experiment is classed as functional.
Experiment [18] has as its system Staphylococcus aureus. As to the kind of experiment: Antibacterial activity against methicillin-resistant Staphylococcus aureus N315. The class given is functional.
For experiment [19], the system named is Pseudomonas aeruginosa. As to the kind of experiment: Antibacterial activity against Pseudomonas aeruginosa ATCC 27853. The experiment is classed as functional.
Experiment [20] relates to Staphylococcus aureus. As to the kind of experiment: Antibacterial activity against Staphylococcus aureus ATCC 29213. The class given is functional.
Experiment [21] has as its system Escherichia coli. As to the kind of experiment: Antibacterial activity against Escherichia coli ATCC 25922. The class given is functional.
The next experiment concerns Acinetobacter baumannii. As to the kind of experiment: Antibacterial activity against Acinetobacter baumannii. The experiment is classed as functional.
Experiment [22] deals with Klebsiella pneumoniae. As to the kind of experiment: Antibacterial activity against Klebsiella pneumoniae. The experiment is classed as functional.
Experiment [23] deals with Staphylococcus aureus. As to the kind of experiment: Antibacterial activity against Staphylococcus aureus ATCC 25923. The experiment is classed as functional.

Usually MIC stands for the smallest concentration in the dilution series that meets the test's criterion for growth inhibition. A low value points to greater potency. For `CCN1CCN(Cn2nc(Cn3cc([N+](=O)[O-])nc3C)oc2=S)CC1`, the MIC in the experiment on Streptococcus pyogenes is 184 to 2890 µM (≈ 67.6 to 1060 µg/mL); in the experiment with Staphylococcus aureus [1], 184 to 2890 µM.

For the molecule `Cc1ccc(/C=C2\SC(=O)N(CCn3c([N+](=O)[O-])cnc3C)C2=O)cc1`, the MIC was in the range of 31.2 to 500 µg/mL in the experiment with Enterococcus faecalis; 31.2 to 500 µg/mL (≈ 83.9 to 1340 µM) against Candida albicans; 31.2 to 500 µg/mL (≈ 83.9 to 1340 µM) in experiment [2]; 31.2 to 500 µg/mL in the experiment on Staphylococcus aureus [1]; 31.2 to 500 µg/mL in the experiment with Escherichia coli [3]; 31.2 to 500 µg/mL against Klebsiella aerogenes [4]. Further, the MIC was 31.2 to 500 µg/mL with Pseudomonas aeruginosa [5], 31.2 to 500 µg/mL (≈ 83.9 to 1340 µM) against Salmonella typhimurium and 31.2 to 500 µg/mL (≈ 83.9 to 1340 µM) against Proteus vulgaris.

Turning to `Cc1ccc(-n2nc(C)c(/C=N/NC(=O)Cn3c([N+](=O)[O-])cnc3C)c2Oc2ccc(F)cc2)cc1`, the MIC in the experiment with Pseudomonas aeruginosa [6], in the experiment on Bacillus subtilis [7], with Escherichia coli [8] and with Staphylococcus aureus [9] was 3.12 to 50 µg/mL (≈ 6.35 to 102 µM) in each case.

On to `Cc1nc([N+](=O)[O-])cn1Cc1nn(CN2CCN(C)CC2)c(=S)o1`, for which the MIC in the experiment on Streptococcus pyogenes is 184 to 2890 µM (≈ 65 to 1020 µg/mL); in the experiment with Staphylococcus aureus [1], 184 to 2890 µM.

Take `Cn1cnc([N+](=O)[O-])c1Sc1nnc(-c2ncc([N+](=O)[O-])n2C)s1`: the MIC in the experiment on Escherichia coli [10] was over 64 µg/mL; against Staphylococcus aureus [11], 4 to 32 µg/mL (≈ 10.9 to 86.9 µM); with Bacillus subtilis [12], over 64 µg/mL; against Klebsiella pneumoniae [13], over 64 µg/mL; with Klebsiella aerogenes [14], over 64 µg/mL.

As a reminder, the MIC90 is the lowest concentration that inhibits either 90% of growth or 90% of the strains tested, depending on the study. Low readings indicate greater potency, high ones weaker potency. As for `Cc1nonc1CNCCn1c([N+](=O)[O-])cnc1C`, the MIC90 with Helicobacter pylori [15] and in the experiment with Helicobacter pylori [16] was 0.5 to 32 µg/mL (≈ 1.88 to 120 µM) each time.

On to `COc1ccc(Oc2c(/C=N/NC(=O)Cn3c([N+](=O)[O-])cnc3C)c(C)nn2-c2ccccc2)cc1`, for which the MIC in the experiment with Pseudomonas aeruginosa [6], in the experiment with Bacillus subtilis [7], with Escherichia coli [8] and in the experiment with Staphylococcus aureus [9] was 3.12 to 50 µg/mL (≈ 6.37 to 102 µM) in each case.

Turning to `Cc1cc([N+](=O)[O-])ccc1NCn1nc(Cn2cc([N+](=O)[O-])nc2C)oc1=S`, the MIC with Streptococcus pyogenes lay in the range of 184 to 2890 µM (≈ 74.6 to 1170 µg/mL); with Staphylococcus aureus [1], 184 to 2890 µM.

As to `Cc1ncc([N+](=O)[O-])n1CCOc1nonc1-c1ccccc1`, the MIC90 in the experiment with Helicobacter pylori [15] is 1 to 4 µg/mL (≈ 3.17 to 12.7 µM); in the experiment with Helicobacter pylori [17], 0.5 to 32 µg/mL (≈ 1.59 to 101 µM); against Helicobacter pylori [16], 0.5 to 32 µg/mL (≈ 1.59 to 101 µM).

In the case of `Cn1cnc([N+](=O)[O-])c1Sc1nnc(-c2ccc([N+](=O)[O-])o2)s1`, the MIC was over 64 µg/mL with Escherichia coli [10]; 4 to 32 µg/mL (≈ 11.3 to 90.3 µM) with Staphylococcus aureus [11]; over 64 µg/mL with Bacillus subtilis [12]; over 64 µg/mL against Klebsiella pneumoniae [13]; over 64 µg/mL with Klebsiella aerogenes [14].

With `Cc1ncc([N+](=O)[O-])n1CCOc1no[n+]([O-])c1-c1ccccc1`, the MIC90 against Helicobacter pylori [15] fell in the range of 1 to 4 µg/mL (≈ 3.02 to 12.1 µM); with Helicobacter pylori [17], 0.5 to 32 µg/mL (≈ 1.51 to 96.6 µM); against Helicobacter pylori [16] it was 0.5 to 32 µg/mL (≈ 1.51 to 96.6 µM).

Take `Cc1nc([N+](=O)[O-])cn1Cc1nn(CNc2ccc(Br)cc2)c(=S)o1`: the MIC with Streptococcus pyogenes was in the range of 184 to 2890 µM (≈ 78.2 to 1230 µg/mL); in the experiment with Staphylococcus aureus [1], 184 to 2890 µM.

In the case of `Cc1nc([N+](=O)[O-])cn1Cc1nn(CNc2ccc(-c3ccccc3)cc2)c(=S)o1`, the MIC against Streptococcus pyogenes is 184 to 2890 µM (≈ 77.7 to 1220 µg/mL); against Staphylococcus aureus [1], 184 to 2890 µM.

As for `Cc1nc([N+](=O)[O-])cn1Cc1nn(CNc2ccccc2)c(=S)o1`, the minimal inhibitory concentration (MIC) lay in the range of 184 to 2890 µM (≈ 63.7 to 1000 µg/mL) against Streptococcus pyogenes and 184 to 2890 µM with Staphylococcus aureus [1].

Regarding `Cc1ncc([N+](=O)[O-])n1CCN1C(=O)S/C(=C\c2cccs2)C1=O`, the MIC was 31.2 to 500 µg/mL against Enterococcus faecalis; 31.2 to 500 µg/mL (≈ 85.8 to 1370 µM) in the experiment with Candida albicans; 31.2 to 500 µg/mL (≈ 85.8 to 1370 µM) in [2]; 31.2 to 500 µg/mL against Staphylococcus aureus [1]; 31.2 to 500 µg/mL in the experiment on Escherichia coli [3]; 31.2 to 500 µg/mL with Klebsiella aerogenes [4]. The MIC in the experiment on Pseudomonas aeruginosa [5] was in the range of 31.2 to 500 µg/mL; against Salmonella typhimurium, 31.2 to 500 µg/mL (≈ 85.8 to 1370 µM); against Proteus vulgaris it was 31.2 to 500 µg/mL (≈ 85.8 to 1370 µM).

For `Cc1ncc([N+](=O)[O-])n1CCOc1nonc1S(=O)(=O)c1ccccc1`, the MIC90 in the experiment on Helicobacter pylori [15] is 1 to 4 µg/mL (≈ 2.64 to 10.5 µM); against Helicobacter pylori [17] it was 0.5 to 32 µg/mL (≈ 1.32 to 84.4 µM); in the experiment with Helicobacter pylori [16], 0.5 to 32 µg/mL (≈ 1.32 to 84.4 µM).

`CCCCCCCCCCN1CCN(c2ccc3c4c(cccc24)C(=O)N(CC(O)Cn2c([N+](=O)[O-])cnc2C)C3=O)CC1` (centres undefined): the MIC with Staphylococcus aureus [18] is 13 to 210 µM (≈ 7.86 to 127 µg/mL); against Enterococcus faecalis it was 13 to 210 µM; in the experiment on Pseudomonas aeruginosa [19], 13 to 210 µM (≈ 7.86 to 127 µg/mL); against Escherichia coli [3], 13 to 210 µM; in the experiment with Klebsiella aerogenes [4] it was 13 µM; in the experiment with Staphylococcus aureus [20] it was 13 to 210 µM (≈ 7.86 to 127 µg/mL). Also, the MIC in the experiment on Escherichia coli [21] lay in the range of 13 to 210 µM (≈ 7.86 to 127 µg/mL); against Pseudomonas aeruginosa [5] it was 13 to 210 µM; in the experiment on Acinetobacter baumannii, 13 to 210 µM (≈ 7.86 to 127 µg/mL); against Klebsiella pneumoniae [22] it was 13 to 210 µM (≈ 7.86 to 127 µg/mL); against Staphylococcus aureus [23], 13 to 210 µM (≈ 7.86 to 127 µg/mL).

For `NC[C@H]1O[C@H](O[C@H]2[C@H](O)[C@@H](O[C@H]3O[C@H](CO)[C@@H](O)[C@H](N)[C@H]3O)[C@H](N)C[C@@H]2N)[C@H](N)[C@@H](O)[C@@H]1O` [BEKANAMYCIN], the MIC in the experiment on Pseudomonas aeruginosa [6], against Bacillus subtilis [7], against Escherichia coli [8] and in the experiment with Staphylococcus aureus [9] was 1.56 to 3.12 µg/mL (≈ 3.23 to 6.45 µM) each time.
